Data on 29 compounds can be found in patent US20240115705A1, “Regulation of Butyrophilin subfamily 3 member A1 (BTN3A1, CD277)” (The J. Gladstone Institutes, a testamentary trust …, priority 2021, published 2024).

What all share (assay type): cell-based, human
The test system of data set [1] is BTN3A. The experiment in a line: mTOR/ISR compound treatment, surface BTN3A by flow cytometry in AAVS1 and PPAT KO Daudi-Cas9 cells. The following applies: control KO (AAVS1) and purine biosynthesis KO (PPAT) Daudi-Cas9 cells, 10 μM, 72 hours. The procedure: Daudi-Cas9 AAVS1 and PPAT KO cells (190 μL) were seeded at 250,000 cells/mL in round-bottom 96-well plates. Cells received 10 μL of DMSO (vehicle) or one of the following compounds at a final concentration of 10 μM: sephin1 (APE×BIO), ISRIB (MedChemExpress), guanabenz acetate (MedChemExpress), Sal003 (MedChemExpress), salubrinal (MedChemExpress), raphin1 acetate (MedChemExpress), and rapamycin (MilliporeSigma). Edge wells were filled with 200 μL of sterile PBS or water. After being cultured for 72 hours, the cells were stained with APC-conjugated anti-human CD277 antibody (clone BT3.1, 1:50 dilution) (Miltenyi Biotec) and 7-AAD (1:150 dilution) (Tonbo), and analyzed on the Attune NxT flow cytometer.

The subject of data set [2] is BTN3A. The experiment in a line: Inhibitor dose response, surface BTN3A by flow cytometry in WT Daudi-Cas9 cells. The following applies: 72 hours, complete RPMI, vs vehicle. The procedure: Daudi-Cas9 cells (180 μL) were seeded at 275,000 cells/mL in cRPMI in round-bottom 96-well plates. Twenty μL of zoledronate, rotenone (MedChemExpress), oligomycin A (Neta Scientific), FCCP (MedChemExpress), antimycin A (Neta Scientific), AICAR (Sigma), 2-DG (Sigma), Compound 991 (Selleck Chemical), A-769662 (Sigma), ethanol (vehicle), or DMSO (vehicle, at dilutions matching the treatment) at various concentrations were added to the cells. Plate edge wells were filled with 200 μL of sterile water or PBS. The cells were grown at 37° C. for 72 hours, and stained with APC-conjugated anti-human CD277 antibody (clone BT3.1, 1:50 dilution)(Miltenyi Biotec) and 7-AAD (1:150 dilution) (Tonbo). The cells were then analyzed on the Attune NxT flow cytometer.

The test system of another data set is Daudi-Cas9 cells. The experiment in a line: Cancer-T cell co-culture genome-wide CRISPR knockout screen (Vγ9Vδ2 T cell killing). Particulars: for score: MAGeCK sgRNA test, co-culture screen; for LFC: log-fold change of sgRNA, surviving cells after co-culture vs baseline; for LFC / treat mean: MAGeCK; for treat mean: sgRNA abundance in surviving Daudi-Cas9 KO cells after 24 hours Vγ9Vδ2 T cell co-culture with zoledronate; for high_in_treatment: sgRNA enriched (TRUE) or depleted (FALSE) after T cell co-culture.

Regarding `N=C(N)N/N=C/c1c(Cl)cccc1Cl` [guanabenz], the BTN3A surface expression result in the data set with BTN3A [1] is listed as “negligible effects”.
For `O=P(O)(O)C(O)(Cn1ccnc1)P(=O)(O)O` [ZOL, zoledronate], the “surface BTN3A (MFI)” value with BTN3A [2] was “substantial and dose-dependent increase in BTN3A”.
In the case of `CC[C@H]1/C=C/C=C/C[C@@H](C)[C@H](O)[C@@](C)(O)C(=O)[C@@H](C)[C@H](O)[C@@H](C)C(=O)[C@@H](C)[C@H](O)[C@@H](C)/C=C/C(=O)O[C@@H]2[C@H](C)[C@H](CC1)O[C@]1(CC[C@H](C)[C@H](C[C@@H](C)O)O1)[C@H]2C` [oligomycin A], in the data set with BTN3A [2], the “surface BTN3A (MFI)” value was “highest BTN3A upregulation”.
As to antimycin A, the “surface BTN3A (MFI)” value with BTN3A [2] is listed as “highest BTN3A upregulation”.
Take `N#Cc1c(O)c2c(-c3ccc(-c4ccccc4O)cc3)csc2[nH]c1=O` [A-769662]: the “surface BTN3A (MFI)” value in the data set on BTN3A [2] is “Upregulation of surface BTN3A”.
For `NC(N)=N/N=C/c1cccc(Cl)c1Cl` [raphin1], the BTN3A surface expression result with BTN3A [1] is “negligible effects”.
For the compound `O=C(/C=C/c1ccccc1)NC(NC(=S)Nc1ccc(Cl)cc1)C(Cl)(Cl)Cl` (centres unmarked) [Sal003], the BTN3A surface expression result in the data set with BTN3A [1] is “downregulation”.
As to `N#CC(C#N)=NNc1ccc(OC(F)(F)F)cc1` [FCCP, carbonyl cyanide-4 (trifluoromethoxy) phenylhydrazone], the “surface BTN3A (MFI)” value with BTN3A [2] is “highest BTN3A upregulation”.
On the same count and under the same terms, next, `C=C(C)[C@H]1Cc2c(ccc3c2O[C@@H]2COc4cc(OC)c(OC)cc4[C@@H]2C3=O)O1` [rotenone]: “BTN3A upregulation at two lower doses and a downregulation at one higher dose”; `O=CC[C@@H](O)[C@H](O)[C@H](O)CO` [2-DG, 2-deoxy-D-glucose]: “upregulated BTN3A levels”.
Consider `O=C(COc1ccc(Cl)cc1)NC1CCC(NC(=O)COc2ccc(Cl)cc2)CC1` (centres unmarked) [ISRIB], for which the BTN3A surface expression entry in the data set with BTN3A [1] is given as “negligible effects”.
With “NUP37_GCCAGCACACACTCATGCC: library sgRNA targeting NUP37 (listed as DNA, chemistry not fully specified)”, in the data set on Daudi-Cas9 cells, the score turned out to be 5.9656, the LFC is −1.9711, the treat mean is on record as 1092.8 and the high_in_treatment entry is “FALSE”.
For `O=C(/C=C/c1ccccc1)NC(NC(=S)Nc1cccc2cccnc12)C(Cl)(Cl)Cl` (centres unmarked) [salubrinal], the BTN3A surface expression entry in the data set with BTN3A [1] is listed as “negligible effects”.
Turning to “NLRC5_AGTCACGTGTCCTACCGTC: library sgRNA targeting NLRC5 (listed as DNA, chemistry not fully specified)”, in the data set on Daudi-Cas9 cells, the score worked out at 6.4705, the LFC is 1.0275, the treat mean was 5262.4 and the high_in_treatment result was “TRUE”.
In the case of “SPIB_GAGGTCTCGGACAGCGAGT: library sgRNA targeting SPIB (as printed in the source, key not given here)”, in the data set with Daudi-Cas9 cells, the score is 7.1579, the LFC was found to be 1.2994, the treat mean turned out to be 3907.1 and the high_in_treatment result was “TRUE”.
For the compound “TTC7A_CAGTACGTCATGCTCTCGG: library sgRNA targeting TTC7A (listed as DNA, chemistry not fully specified)”, in the data set on Daudi-Cas9 cells, the score turned out to be 6.0307, the LFC was −5.2629, the treat mean was determined as 63.697 and the high_in_treatment result is on record as “FALSE”.
As to “WDR59_TATCCGCACATCGCCGTCA: library sgRNA targeting WDR59 (as printed in the source, key not given here)”, in the data set on Daudi-Cas9 cells, the score turned out to be 7.8204, the LFC was −3.8469, the treat mean turned out to be 327.58 and the high_in_treatment result was “FALSE”.
For “SPIB_GGGGGGTTCGTAGCAGAGC: library sgRNA targeting SPIB (as printed in the source, key not given here)” the same measures were 6.2733, 1.2452, 3280.6 and “TRUE”.
For “BTN3A1_CTTCTTCAGGAGCGCCCAG: library sgRNA targeting BTN3A1 (listed as DNA, chemistry not fully specified)” the same measures were 19.78, 2.2076, 9150.3 and “TRUE”.
Regarding “MRPL9_CTCCACGATGACCGTGCCC: library sgRNA targeting MRPL9 (as printed in the source, key not given here)”, in the data set on Daudi-Cas9 cells, the score turned out to be 6.5755, the LFC is recorded as −4.3743, the treat mean is listed as 152.42 and the high_in_treatment result is reported as “FALSE”.
Take “BTN2A2_TGTGCACTGGTCTCAGGTA: library sgRNA targeting BTN2A2 (listed as DNA, chemistry not fully specified)”: in the data set on Daudi-Cas9 cells, the score is 13.201, the LFC came to 2.0744, the treat mean turned out to be 4689.1 and the high_in_treatment result was “TRUE”.
In the case of “SLC22A3_GCCTTCCTCTTCGTCGGCG: library sgRNA targeting SLC22A3 (listed as DNA, chemistry not fully specified)”, in the data set with Daudi-Cas9 cells, the score is 6.0158, the LFC worked out at 1.0179, the treat mean was 4633 and the high_in_treatment entry is on record as “TRUE”.
For the compound “AARS2_ATCCGCCTACCCCGCTCCA: library sgRNA targeting AARS2 (listed as DNA, chemistry not fully specified)”, in the data set with Daudi-Cas9 cells, the score came out at 6.7194, the LFC is given as −4.9928, the treat mean was 99.765 and the high_in_treatment result is on record as “FALSE”.
With “MTG2_ATGAGTACATTGCCGCGCT: library sgRNA targeting MTG2 (listed as DNA, chemistry not fully specified)”, in the data set on Daudi-Cas9 cells, the score is listed as 6.5262, the LFC is given as −4.2612, the treat mean is listed as 163.79 and the high_in_treatment entry was “FALSE”.
With “MRPL28_TTCCCCCCGAATCCCAGCG: library sgRNA targeting MRPL28 (as printed in the source, key not given here)”, in the data set on Daudi-Cas9 cells, the score amounted to 7.2159, the LFC is given as −3.2156, the treat mean is listed as 469.77 and the high_in_treatment entry is listed as “FALSE”.
In the same order, the values of “RFXAP_CGTTAGGTACCTGTGCGAA: library sgRNA targeting RFXAP (listed as DNA, chemistry not fully specified)” are 7.0414, 1.5428, 2592.9 and “TRUE”.
For the compound “ACAT2_CAGTCCAGTCAATAGGGAT: library sgRNA targeting ACAT2 (listed as DNA, chemistry not fully specified)”, in the data set on Daudi-Cas9 cells, the score turned out to be 12.759, the LFC is recorded as 2.0827, the treat mean was determined as 4335.4 and the high_in_treatment entry was “TRUE”.
Regarding “LUM_TAGAAAACTCCAAGATAAA: library sgRNA targeting LUM (listed as DNA, chemistry not fully specified)”, in the data set on Daudi-Cas9 cells, the score stood at 8.61, the LFC worked out at 4.64, the treat mean was found to be 171.75 and the high_in_treatment entry was “TRUE”.
On to “ACAT2_CAAGTGAGTAGAGAAGATC: library sgRNA targeting ACAT2 (listed as DNA, chemistry not fully specified)”, for which, in the data set on Daudi-Cas9 cells, the score worked out at 6.1049, the LFC is given as 1.9893, the treat mean came to 1085.8 and the high_in_treatment entry was “TRUE”.
